Values joined by “and” are separate entries in the source; they are usually repeats but may differ in a detail not shown here. Equal values may be shown once. “Also recorded” adds a separate entry of the source. Read-outs that look alike come from different tables or passages of the source. Bounds are passed on as bounds.

The source of these data is article PMC11747885, “Potent inhibitors of the human RNA ligase Rlig1 highlights its role in RNA integrity maintenance under oxidative cellular stress” (Chemical Science, 2025).

In series [1] the target is T1, Rlig1-AMP (Homo sapiens, UniProt Q8N999).
T1 construct: made in house; host or cells: E. coli BL21 (DE3), pET15b-Rlig1
T1 sequence (Q8N999 whole entry): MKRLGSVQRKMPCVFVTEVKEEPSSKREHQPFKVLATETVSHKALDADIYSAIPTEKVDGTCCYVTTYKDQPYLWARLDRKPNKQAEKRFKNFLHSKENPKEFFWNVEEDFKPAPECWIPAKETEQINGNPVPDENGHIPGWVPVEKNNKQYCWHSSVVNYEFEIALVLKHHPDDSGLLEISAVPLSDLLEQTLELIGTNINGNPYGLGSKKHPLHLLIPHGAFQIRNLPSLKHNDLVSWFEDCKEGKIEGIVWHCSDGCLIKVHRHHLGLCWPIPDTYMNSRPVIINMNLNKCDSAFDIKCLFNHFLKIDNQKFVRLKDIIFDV
Nature of the series: FRET-based high-throughput screening of inhibitors for Rlig1-AMP. The format is biochemical. The conditions noted are these: for 1-D Distance / Raw data [w Enyzm] / Raw data [w/o Enzym] / 1-D Distance.npi: HTS hits; for Raw data [w Enyzm]: with enzyme; for Raw data [w/o Enzym]: without enzyme; for 1-D Distance.npi: normalised value of 1-D Distance.

The conditions of series [2]: DMSO; ref MedChemExpress; cited from earlier work.
For series [3] the following is noted: ultrasonic/warming, ref MedChemExpress, cited from earlier work.
The target in series [4] is T1, Rlig1-AMP. Nature of the series: Radioactive RNA ligation assay (hit validation, 10 µM test and IC50 determination). The format is biochemical. The conditions noted are these: for IC50: n = 3; for percentage inhibition (dose response curve for IC50): replicates I-III.
For series [5], the system named is HEK293 cells. The series is described as follows: Light-microscopy of inhibitor- and menadione-treated HEK293 cells. The format is cell-based, human. The following applies: 30 µM compound 24 h, then menadione 5 h.
Series [6] deals with T2, human DNA ligase 1 (hLig1) (Homo sapiens, UniProt P18858).
T2 construct: made in house; host or cells: E. coli Rosetta BL21 (DE3), pET28a-hLig1
T2 sequence (P18858 whole entry): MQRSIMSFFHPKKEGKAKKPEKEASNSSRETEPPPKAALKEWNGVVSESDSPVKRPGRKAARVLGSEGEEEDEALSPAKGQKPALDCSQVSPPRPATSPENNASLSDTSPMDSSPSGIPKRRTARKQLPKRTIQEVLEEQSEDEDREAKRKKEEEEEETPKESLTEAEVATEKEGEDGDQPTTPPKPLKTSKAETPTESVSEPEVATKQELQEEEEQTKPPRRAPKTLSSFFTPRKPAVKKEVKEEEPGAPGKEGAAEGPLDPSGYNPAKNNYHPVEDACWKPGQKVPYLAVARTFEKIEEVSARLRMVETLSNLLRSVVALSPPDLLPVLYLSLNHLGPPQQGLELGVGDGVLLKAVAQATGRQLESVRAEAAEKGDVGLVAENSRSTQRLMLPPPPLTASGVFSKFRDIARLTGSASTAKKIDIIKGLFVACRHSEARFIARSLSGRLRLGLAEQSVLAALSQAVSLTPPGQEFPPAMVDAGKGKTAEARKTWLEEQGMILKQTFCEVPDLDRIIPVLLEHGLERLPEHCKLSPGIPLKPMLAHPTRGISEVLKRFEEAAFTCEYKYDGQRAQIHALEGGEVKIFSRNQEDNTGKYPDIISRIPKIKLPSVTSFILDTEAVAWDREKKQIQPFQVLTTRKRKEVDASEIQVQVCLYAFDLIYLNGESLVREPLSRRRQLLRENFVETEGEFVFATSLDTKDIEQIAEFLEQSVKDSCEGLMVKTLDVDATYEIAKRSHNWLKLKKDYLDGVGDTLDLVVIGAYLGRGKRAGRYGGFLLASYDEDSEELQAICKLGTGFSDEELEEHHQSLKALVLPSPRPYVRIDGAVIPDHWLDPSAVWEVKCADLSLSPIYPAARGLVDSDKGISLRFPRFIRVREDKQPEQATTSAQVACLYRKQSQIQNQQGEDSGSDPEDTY
Nature of the series: DNA ligation assay with various hLig1 concentration at constant inhibitor concentration. The format is biochemical. The following applies: 10 µM compound, 30 min 37 °C, three replicates.

Another series deals with PKC. Also on record: method as in MedChemExpress. The following applies: ref MedChemExpress, cited from earlier work.
The conditions of series [7]: DMSO; ref MedChemExpress; cited from earlier work. This is another data set of the same source.
The nature of the next series: in vitro. The following applies: human.
In series [8] the test system is DNA methyltransferases (DNMTs). The following applies: cited from earlier work.
Series [9] relates to HEK293 cells. The series is described as follows: Cell viability assay of HEK293 cells treated with inhibitors (CellTiter-Glo).
Series [10] has as its system HEK293 cells. The series is described as follows: Cell viability assay of HEK293 cells treated with inhibitors and menadione. The format is cell-based, human. The conditions noted are these: inhibitor 24 h, then 40 μM menadione 5 h.
Assay in series [11]: as above
The format is cell-based, human. The following applies: human, HEK293 cells, 30 μM compound, 24 h, no menadione; read-out: cell viability without oxidative stress.

Series [12] has as its system HEK293 cells. Nature of the series: RNA integrity analysis of HEK293 cells treated with inhibitors and menadione (TapeStation 28S/18S rRNA). The format is cell-based, human. The conditions noted are these: 30 μM compound 24 h; Menadione 0 μM.
[13] abbreviates: difference of raw data without and with enzyme.
The mark [14] stands for this setting: difference of raw data w/o and w enzyme.
Setting [15] is: log(inhibitor) vs. response, variable slope (four parameters).
The mark [16] stands for this setting: radioactive ligation assay, 500 nM Rlig1-AMP, 20 min 37 °C, read-out: IC50.

The term solubility denotes how much of the substance goes into solution per volume. As to `O=C(O)c1cc(O)c2c(c1)[C@H]([C@H]1c3cc(C(=O)O)cc(O)c3C(=O)c3c(O[C@@H]4O[C@H](CO)[C@@H](O)[C@H](O)[C@H]4O)cccc31)c1cccc(O[C@@H]3O[C@H](CO)[C@@H](O)[C@H](O)[C@H]3O)c1C2=O` [Sennoside A], at Rlig1-AMP [1] (setting [13]), the “1-D Distance” value was 1736. Moreover, on Rlig1-AMP [1], the “Raw data [w Enyzm]” value amounted to 4442 and the “Raw data [w/o Enzym]” value is 6178. For the same molecule, in series [2], the solubility is 250 mg/mL and 289.77 mM.
With `C[n+]1ccc(-c2c3nc(c(-c4cc[n+](C)cc4)c4ccc([nH]4)c(-c4cc[n+](C)cc4)c4nc(c(-c5cc[n+](C)cc5)c5ccc2[nH]5)C=C4)C=C3)cc1.Cc1ccc(S(=O)(=O)[O-])cc1.Cc1ccc(S(=O)(=O)[O-])cc1.Cc1ccc(S(=O)(=O)[O-])cc1.Cc1ccc(S(=O)(=O)[O-])cc1` [TMPyP4 tosylate], the “1-D Distance” value at Rlig1-AMP [1] (setting [14]) turned out to be 40. On Rlig1-AMP [1], the “1-D Distance.npi” value turned out to be 106.113, the “Raw data [w Enyzm]” value amounted to 658 and the “Raw data [w/o Enzym]” value was 698. In [3], the “solubility, DMSO” value is 10 mg/mL and 7.33 mM; the “solubility, H2O” value was 25 mg/mL and 18.33 mM.
The IC50 is the concentration that inhibits the measured activity by half. Turning to `Nc1nccc(Nc2ccc(NC(=O)c3ccc(Nc4ccnc5ccccc45)cc3)cc2)n1` [Compound 26], the “inhibition of Rlig1-AMP ligation (urea-PAGE)” value on Rlig1-AMP [4] (10 μM compound, 500 nM Rlig1-AMP, 20 min 37 °C) is “Ligation was inhibited; also recorded: fully inhibited”. Further, the “HillSlope (best-fit value)” value on Rlig1-AMP [4] (four-parameter fit) was 3.34. Besides, the “Span (best-fit value)” value on Rlig1-AMP [4] (four-parameter fit) stood at 95.37. The IC50 is 4.49 µM at Rlig1-AMP [4] (four-parameter fit, read-out: IC50 (best-fit value)) and 4.49 µM at Rlig1-AMP [4] (setting [16]). Moreover, the “percentage inhibition (dose response curve for IC50)” value is 7.036 and 5.771 and 6.366 on Rlig1-AMP [4] (log Compound [µM] 0.273001); 19.5464 and 52.3001 and 38.2038 at Rlig1-AMP [4] (log Compound [µM] 0.574031); 94.6767 and 96.3427 and 56.3237 on Rlig1-AMP [4] (log Compound [µM] 0.875061); 97.6992 and 100 and 95.9858 at Rlig1-AMP [4] (log Compound [µM] 1.17609); 89.2369 and 100 (2×) on Rlig1-AMP [4] (log Compound [µM] 1.47712); 3.692 and 2.642 and 2.052 at Rlig1-AMP [4] (log Compound [µM] -0.0280287). In addition, the “percentage inhibition (dose response curve for IC50)” value on Rlig1-AMP [4] (log Compound [µM] -0.329059) is 0 and 3.294 and 5.142; at Rlig1-AMP [4] (log Compound [µM] -0.630089) it was 0 and 3.877 and 4.72. Also, the “LogIC50 (best-fit value)” value on Rlig1-AMP [4] (log of µM, four-parameter fit) turned out to be 0.6524. Besides, the “Bottom (best-fit value)” value on Rlig1-AMP [4] (setting [15]) is reported as 2.425. Moreover, the “Top (best-fit value)” value at Rlig1-AMP [4] (setting [15]) was determined as 97.8. The cell morphology entry in the series with HEK293 cells [5] was “poor adherence and cell shrinkage”. Further, the DNA product formation was 43.039% and 22.9913% and 34.3002% in series [6] (hlig1 0.0315 µM); 60.9211% and 39.0213% and 52.249% in [6] (hlig1 0.0625 µM); 79.5392% and 84.6219% and 85.9221% in series [6] (hlig1 0.5 µM).
For the molecule `COc1cccc2c1C(=O)c1c(O)c3c(c(O)c1C2=O)C[C@@](O)(C(=O)CO)C[C@@H]3O[C@H]1C[C@H](N)[C@H](O[C@@H]2CCCCO2)[C@H](C)O1.Cl` [Pirarubicin (Hydrochloride)], the “1-D Distance” value at Rlig1-AMP [1] (setting [14]) was determined as 1020. Further, at Rlig1-AMP [1], the “1-D Distance.npi” value is on record as 86.4182, the “Raw data [w Enyzm]” value amounted to 2238 and the “Raw data [w/o Enzym]” value was found to be 3258. In addition, in series [3], the “solubility, DMSO” value is 20.83 mg/mL and 31.37 mM; the “solubility, H2O” value is listed as under 0.1 mg/mL.
As to `CCCCC(=O)OCC(=O)[C@]1(O)Cc2c(O)c3c(c(O)c2[C@@H](O[C@H]2C[C@H](NC(=O)C(F)(F)F)[C@H](O)[C@H](C)O2)C1)C(=O)c1c(OC)cccc1C3=O` [Valrubicin], on Rlig1-AMP [1] (setting [14]), the “1-D Distance” value was 1660. Besides, at Rlig1-AMP [1], the “Raw data [w Enyzm]” value stood at 2541 and the “Raw data [w/o Enzym]” value was determined as 4201. Also, the IC50 with PKC (PDBu-induced, read-out: IC50, PDBu-induced PKC activation) was 1.25 µM. In addition, the IC50 with PKC (TPA-induced, read-out: IC50, TPA-induced PKC activation) was 0.85 µM. For the same molecule, in [3], the “solubility, DMSO” value is 125 mg/mL and 172.74 mM.
As for `CC1(C)CCC(C)(C)c2cc(NC(=O)c3ccc(C(=O)O)cc3)ccc21` [Tamibarotene], the “1-D Distance” value at Rlig1-AMP [1] (setting [14]) is listed as 1704. At Rlig1-AMP [1], the “Raw data [w Enyzm]” value was 8958 and the “Raw data [w/o Enzym]” value turned out to be 10662. Also, the “solubility, DMSO” value in series [3] was 25.5 mg/mL and 72.56 mM.
Take `Cc1cnc(NCCCN(C)C)c2c1[nH]c1ccc3cc(O)ccc3c12` [Intoplicine]: at Rlig1-AMP [1] (setting [13]), the “1-D Distance” value turned out to be 1659. At Rlig1-AMP [1], the “Raw data [w Enyzm]” value is given as 6875 and the “Raw data [w/o Enzym]” value was determined as 8534. For the same molecule, the solubility in series [2] was 80 mg/mL and 229.59 mM.
In general, inhibition refers to how much of the control response was suppressed. By viability is commonly meant a read-out of living cells in per cent, often relative to untreated cells. By EC50 is commonly meant the concentration that produces a half-maximal response. Low values mean a more potent agent, high ones a less potent agent. Regarding `Cc1cc(Nc2ccc(NC(=O)c3ccc(Nc4ccnc5ccccc45)cc3)cc2)nc(N)n1` [Compound 1, SGI-1027, reference compound], at Rlig1-AMP [1] (10 μM compound, read-out: inhibition in HTS), the inhibition at 10 µM was over 70%. The “1-D Distance” value on Rlig1-AMP [1] (setting [14]) worked out at 390. Moreover, at Rlig1-AMP [1], the “Raw data [w Enyzm]” value is reported as 8456 and the “Raw data [w/o Enzym]” value was 8066. Also, in series [7], the solubility is 27 mg/mL and 58.50 mM. Moreover, the inhibition at 10 µM at Rlig1-AMP [4] (10 µM compound, 37 °C, 20 min) was over 70%. Also, the “formation of the RNA-adenylate intermediate” value on Rlig1-AMP [4] (dose-response urea-PAGE (Fig. S3)) was “inhibited the formation of the RNA-adenylate intermediate”. The IC50 on Rlig1-AMP [4] (setting [16]) amounted to 3.96 µM. For the same molecule, in “in vitro”, the viability at 24 h, 0.234375 µM is 113%; the viability at 24 h, 0.46875 µM came out at 103%; the viability at 24 h, 0.9375 µM was 104%; the viability at 24 h, 1.875 µM is 101%. In “in vitro”, the viability at 24 h, 3.75 µM worked out at 91.9%; the viability at 24 h, 7.5 µM was determined as 83.6%; the viability at 24 h, 15 µM is 60.5%; the viability at 24 h, 30 µM was 51%. Besides, the IC50 in [8] (DNMT1, poly(dI-dC) as substrate, ref MedChemExpress, read-out: IC50) was 12.5 µM. Moreover, the IC50 in series [8] (DNMT3A, poly(dI-dC) as substrate, ref MedChemExpress, read-out: IC50) is 8 µM. In addition, the IC50 in [8] (DNMT3B, poly(dI-dC) as substrate, ref MedChemExpress, read-out: IC50) is 7.5 µM. The IC50 in series [8] (read-out: IC50 DNMTs) was 6 to 13 µM. Besides, the “cytotoxicity (in words)” value in the series with HEK293 cells [9] (HEK293, 24 h, up to 30 μM) was “moderate cytotoxicity”. Further, in the series on HEK293 cells [9] (HEK293 cell viability, fit per plate (3 plates, 4 technical replicates each), highest tested concentration 30 µM), the “IC50 (Figure 3D: EC50 values for plot; log(inhibitor) vs. response -- Variable slope (four parameters))” value is 26.0265 µM and 22.3419 µM and 19.1567 µM. Besides, the “LogIC50 (log(inhibitor) vs. response -- Variable slope (four parameters))” value with HEK293 cells [9] (HEK293 cell viability, fit per plate (3 plates, 4 technical replicates each), log of [µM]) was 1.415 and 1.349 and 1.282. Also, a half-maximal response in the series with HEK293 cells [9] (Homo sapiens, HEK293, 24 h) (EC50) required 23.2 µM. Also, in the series with HEK293 cells [10], the “cell viability under oxidative stress (in words)” value is listed as “almost complete loss of viability”. Besides, the viability at 24 h, 30 µM in [11] was 50%. In addition, in the series on HEK293 cells [5], the cell morphology result was “poor adherence and cell shrinkage”. Also, in the series on HEK293 cells [12], the 28S/18S ratio is over 2.
Consider `O=C(O)c1cc(O)c2c(c1)[C@@H]([C@H]1c3cc(C(=O)O)cc(O)c3C(=O)c3c(O[C@@H]4O[C@H](CO)[C@@H](O)[C@H](O)[C@H]4O)cccc31)c1cccc(O[C@@H]3O[C@H](CO)[C@@H](O)[C@H](O)[C@H]3O)c1C2=O` [Sennoside B], for which the “1-D Distance” value on Rlig1-AMP [1] (setting [14]) was 1108. Further, at Rlig1-AMP [1], the “Raw data [w Enyzm]” value is 3598 and the “Raw data [w/o Enzym]” value is listed as 4706. The “solubility, DMSO” value in series [3] was 125 mg/mL and 144.89 mM.
